From patent publication US20230181532A1, “GRANULES FOR 3D PRINTING TECHNOLOGY” (BOARD OF REGENTS, THE UNIVERSITY OF TEXAS SYSTEM, priority 2020, published 2023)

Columns and labels:
Format in all cases: physicochemical
[1] = In vitro release testing, pH shift dissolution (USP type II paddle); settings: pH 2, 2 h
Method: The in vitro release testing was performed using a pH shift protocol to simulate physiological conditions and contrary to the USP dissolution medium i.e., pH 7.2 phosphate buffer. […] Moreover, because of its pKa and hydrophobicity, and the amorphous nature of the drug in the samples of interest, it was important to expose it to acidic conditions before exposing it to relatively basic conditions. […] If the drug exists in its amorphous form in the formulation, it is crucial to study its stability in the acidic pH as in the physiological environment the formulation will be exposed to it first.
For this pH-shift dissolution test, the above-mentioned samples (n=3) were introduced into 750 mL of HCl-KCl buffer (pH 2, 0.1 M, hydrochloric acid-potassium chloride buffer) for 2 h using a 900 mL vessel. 150 mL of phosphate buffer (pH6.8, 0.1 M) was then introduced to each vessel shifting the pH from 2 to 6.8, with a final volume of 900 mL. […] The dissolution of the samples was tested at the final pH of 6.8 for an additional 2 h. The test was conducted using a Paddle type assembly (USP type II). […] Acetonitrile was used to dilute (2-fold) the drawn samples and the previously described method of analysis was used to quantify the API in the samples.

[2] = Flow through orifice powder flow test
Description: A United States Pharmacopoeia (USP) compliant flowability tester, with funnel attachments (BEP2, Copley Scientific Limited, Nottingham, UK) was used for the flow-through orifice study. The purpose of this test was to stimulate the flow in a hopper or other mass transfer situations (Taylor et al., 2000). The funnel was placed 40 mm above the collecting beaker, and the beaker was placed on a measuring scale. The nozzle was fixed onto the funnel and the shutter mechanism was used to prevent any premature flow from the funnel. 100 g of the sample powder was transferred to the funnel and the test was started 30 s after the transfer (this facilitated floccule formation). The weight was recorded for the samples with respect to the time in triplicates (n=3) for each nozzle diameter (10, 15, and 25 mm) and samples (PA 12 (reference), granules, and drug). Time versus weight curves were constructed for the processed granules and the properties were compared with PA 12.

Angle of repose (AOR) = assay: Angle of repose (AOR)
Description: A 100 mm circular test platform together with a digital height gauge having a range of 0-300 mm and an accuracy of 0.03 mm was used (BEP2, Copley Scientific Limited. Nottingham, UK). […] The surplus powder was collected in a tray below the test platform. The nozzle (10 mm nozzle for the angle of repose) of the funnel was placed 75 mm above the test platform, and the nozzle was secured using the shutter mechanism. 100 g of the sample (drug and granules) were placed in the funnel, and the shutter was moved gently but rapidly to allow the powder to flow. The powder formed a conical on the test platform and started overflowing. […] The height of the powder cone was measured using the digital height gauge and the diameter of the cone was 100 (diameter of the platform was 100 mm). Equation 2 was used to calculate the angle of repose.

flow through orifice observation [2]: no flow throughout the test
flow classification as per the AOR reference table (Angle of repose (AOR)): very poor
angle of repose θ value (Angle of repose (AOR); 10 mm nozzle, 100 g sample, n=3): 58.2±0.06 °
Structure (SMILES): COc1ccc2c(c1)c(CC(=O)O)c(C)n2C(=O)c1ccc(Cl)cc1 [IND, Indomethacin]
dissolution behaviour in acidic environment [1]: did not show any improvement in their solubility
